Test results as given in ChEMBL document CHEMBL4699491, “Identification of TNO155, an Allosteric SHP2 Inhibitor for the Treatment of Cancer” (J Med Chem, 2020).
Converted amounts (≈) assume the structure as drawn.

How the values were obtained:
[1] = target: T1, Tyrosine-protein phosphatase non-receptor type 11 (Homo sapiens) (UniProt Q06124); settings: filed as negative allosteric modulator
T1 sequence (whole entry): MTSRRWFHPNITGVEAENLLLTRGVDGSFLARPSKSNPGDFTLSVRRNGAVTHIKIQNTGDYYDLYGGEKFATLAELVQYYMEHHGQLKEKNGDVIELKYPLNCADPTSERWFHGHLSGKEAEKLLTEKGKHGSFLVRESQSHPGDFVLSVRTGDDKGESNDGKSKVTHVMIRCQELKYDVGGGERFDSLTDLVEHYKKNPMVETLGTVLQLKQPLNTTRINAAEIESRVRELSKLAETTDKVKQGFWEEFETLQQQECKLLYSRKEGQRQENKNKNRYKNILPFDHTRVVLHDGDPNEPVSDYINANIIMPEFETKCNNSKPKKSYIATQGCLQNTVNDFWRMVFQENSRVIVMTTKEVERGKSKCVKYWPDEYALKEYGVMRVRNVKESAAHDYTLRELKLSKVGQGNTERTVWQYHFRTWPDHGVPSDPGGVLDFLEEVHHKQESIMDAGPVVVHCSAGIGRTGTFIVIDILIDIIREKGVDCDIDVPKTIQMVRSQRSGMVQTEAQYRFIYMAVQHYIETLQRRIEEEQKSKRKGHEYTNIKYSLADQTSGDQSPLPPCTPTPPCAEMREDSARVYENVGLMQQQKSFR

[2] = system: KYSE-520 cell line; assay: Antiproliferative activity against human KYSE-520 cells; assay type: functional, cell-based
[3] = target: T2, Tyrosine-protein phosphatase non-receptor type 11 (Homo sapiens, UniProt Q06124); assay: Allosteric inhibition of 6x-histidine tagged human SHP2 (Met1-L525 residues) expressed in Escherichia coli BL21 Star (DE3) using IRS1_pY1172(dPEG8)[…] incubated for 30 mins by fluorescence based DIFMUP assay
T2 sequence (Q06124 whole entry): T1 sequence (whole entry)

[4] = target: T2, Tyrosine-protein phosphatase non-receptor type 11
Description: Allosteric inhibition of human SHP2 in human KYSE-520 cells assessed as reduction in ERK1/2 phosphorylation by fluorescence based assay

[5] = target: Voltage-gated inwardly rectifying potassium channel KCNH2 (Homo sapiens, UniProt Q12809)
Sequence of Voltage-gated inwardly rectifying potassium channel KCNH2 (Q12809 whole entry): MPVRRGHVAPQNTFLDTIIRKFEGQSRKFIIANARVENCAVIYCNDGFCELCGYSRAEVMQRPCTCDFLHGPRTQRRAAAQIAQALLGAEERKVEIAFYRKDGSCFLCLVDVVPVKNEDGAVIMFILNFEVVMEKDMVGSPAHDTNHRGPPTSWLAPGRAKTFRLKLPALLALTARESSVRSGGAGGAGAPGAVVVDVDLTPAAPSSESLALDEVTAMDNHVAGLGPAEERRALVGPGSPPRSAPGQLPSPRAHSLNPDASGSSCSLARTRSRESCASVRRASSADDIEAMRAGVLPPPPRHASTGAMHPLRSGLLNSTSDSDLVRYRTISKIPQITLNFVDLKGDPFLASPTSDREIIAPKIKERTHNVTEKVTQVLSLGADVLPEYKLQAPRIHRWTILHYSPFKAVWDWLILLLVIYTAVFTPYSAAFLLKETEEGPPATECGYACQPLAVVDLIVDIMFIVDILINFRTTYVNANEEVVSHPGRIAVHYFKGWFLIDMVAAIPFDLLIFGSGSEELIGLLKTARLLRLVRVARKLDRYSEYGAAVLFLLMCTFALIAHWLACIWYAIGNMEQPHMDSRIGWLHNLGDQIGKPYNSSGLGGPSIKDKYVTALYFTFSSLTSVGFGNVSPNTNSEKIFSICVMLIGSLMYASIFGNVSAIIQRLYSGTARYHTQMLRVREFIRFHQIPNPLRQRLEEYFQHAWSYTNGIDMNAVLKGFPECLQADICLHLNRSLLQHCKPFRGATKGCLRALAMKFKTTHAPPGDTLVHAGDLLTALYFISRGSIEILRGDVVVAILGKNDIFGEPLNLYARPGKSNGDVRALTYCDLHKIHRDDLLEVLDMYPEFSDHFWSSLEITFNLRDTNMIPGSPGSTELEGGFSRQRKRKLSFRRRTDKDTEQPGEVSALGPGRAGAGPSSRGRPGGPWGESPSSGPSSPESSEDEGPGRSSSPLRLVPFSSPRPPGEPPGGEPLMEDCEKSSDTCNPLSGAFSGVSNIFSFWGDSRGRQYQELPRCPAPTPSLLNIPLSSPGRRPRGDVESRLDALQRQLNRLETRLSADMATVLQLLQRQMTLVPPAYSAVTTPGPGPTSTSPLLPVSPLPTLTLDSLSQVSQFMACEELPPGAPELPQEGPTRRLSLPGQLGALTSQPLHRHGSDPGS
Description: Inhibition of human ERG by Q-patch assay

[6] = physchem; settings: aqueous, pH 6.8
Description: Aqueous solubility of the compound at pH 6.8

[7] = physchem; settings: octanol/water
Description: Lipophilicity, logP of the compound

[8] = physchem; settings: octanol/water; remark: listed apart in the source
Description: Distribution coefficient, logD of the compound

[9] = system: A-375; assay: Antiproliferative activity against human A-375 cells; assay type: functional, cell-based
[10] = target: Serine/threonine-protein kinase B-raf (Homo sapiens, UniProt P15056); assay: Inhibition of RAF in human A-375 cells assessed as reduction in p-ERK levels; assay type: cell-based
Sequence of Serine/threonine-protein kinase B-raf (P15056 whole entry): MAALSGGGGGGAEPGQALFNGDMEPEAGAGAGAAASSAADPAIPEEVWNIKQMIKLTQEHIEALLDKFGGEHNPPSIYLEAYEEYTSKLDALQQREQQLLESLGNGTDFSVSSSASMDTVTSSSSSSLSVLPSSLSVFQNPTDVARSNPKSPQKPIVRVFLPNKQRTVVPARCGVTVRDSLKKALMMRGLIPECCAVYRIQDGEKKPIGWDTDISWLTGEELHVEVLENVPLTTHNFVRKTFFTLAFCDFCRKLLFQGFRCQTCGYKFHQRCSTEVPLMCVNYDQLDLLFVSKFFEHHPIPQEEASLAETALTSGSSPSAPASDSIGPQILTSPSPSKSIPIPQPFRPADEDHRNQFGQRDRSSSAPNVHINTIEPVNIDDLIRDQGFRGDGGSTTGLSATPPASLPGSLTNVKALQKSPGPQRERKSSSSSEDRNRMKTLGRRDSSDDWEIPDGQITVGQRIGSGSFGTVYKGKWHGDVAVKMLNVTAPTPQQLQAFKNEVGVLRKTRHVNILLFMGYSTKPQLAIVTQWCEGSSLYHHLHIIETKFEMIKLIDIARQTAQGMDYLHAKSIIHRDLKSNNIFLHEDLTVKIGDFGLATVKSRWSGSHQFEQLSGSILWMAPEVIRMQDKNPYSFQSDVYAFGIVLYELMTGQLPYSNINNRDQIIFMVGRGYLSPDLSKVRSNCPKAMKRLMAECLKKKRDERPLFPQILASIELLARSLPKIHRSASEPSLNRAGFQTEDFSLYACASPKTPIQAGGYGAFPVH

| Compound | IC50 ([2]; kyse-520) [nM] | IC50 [4] [nM] | IC50 [5] [nM] | solubility [6] [µM] | logP [7] | logD [8] | IC50 ([2]; Homo sapiens, KYSE-520) [nM] | also measured |
| --- | --- | --- | --- | --- | --- | --- | --- | --- |
| Nc1nc2ccc(Sc3cccc(Cl)c3Cl)nc2[nH]1 |  |  |  |  |  |  |  | ΔTm [1]: 1.5 °C |
| CC1(CN)CCN(c2cnc(Sc3cccc(Cl)c3Cl)c(N)n2)CC1 | 2670 | 88 | 2400 | 109 (≈ 43.4 µg/mL) | 4.3 | 2.5 |  | IC50 [3]: 17 nM |
| Nc1nc(N2CCC3(CC2)COC[C@H]3N)cnc1Sc1ccnc(N)c1Cl |  | 99 | > 25000 | 787 (≈ 321 µg/mL) | 1.1 | 0.2 | 665 |  |
| CC1(N)CCN(c2cnc(Sc3ccccc3Cl)c(N)n2)CC1 | 8140 | 251 |  |  |  |  |  |  |
| Cc1ccc(NC(=O)c2ccnc(C(F)(F)F)c2)cc1-c1cc(OCCO)nc(N2CCOCC2)c1 [NAPORAFENIB] |  |  |  |  |  |  |  | IC50 [9]: 240 nM; IC50 [10]: 78 nM |
| C[C@H]1OCC2(CCN(c3cnc(Sc4ccnc(N)c4Cl)c(N)n3)CC2)[C@@H]1N | 740 |  |  | 382 (≈ 161 µg/mL) |  |  |  |  |
| Nc1nccc(Sc2cnc(N3CCC4(CCC[C@H]4N)CC3)cn2)c1Cl |  |  |  |  |  |  | 87 |  |
| CC1(CN)CCN(c2cnc(-c3cccc(Cl)c3Cl)c(N)n2)CC1 |  |  |  |  |  |  | 5540 |  |
| Nc1nc(N2CCC3(CCC[C@H]3N)CC2)cnc1Sc1cccnc1C(F)(F)F |  |  |  |  |  |  | 1160 |  |
| CC1(N)CCN(c2cnc(Sc3cccnc3C(F)(F)F)c(N)n2)CC1 |  | 339 | 17400 | 85 (≈ 32.7 µg/mL) | 2 | -0.5 |  | IC50 [3]: 67 nM |
